Source: PMC11855827, “High-Throughput Screening of Five Compound Libraries for Anthelmintic Activity and Toxicity Leads to the Discovery of Two Flavonoid Compounds” (International Journal of Molecular Sciences, 2025)

Tested on: C. elegans
Settings: Table S2, C. elegans SS assay, 110 μM, averages of 4 data points

For COc1cc(-c2coc3c([C@@H]4O[C@H](CO)[C@@H](O)[C@H](O)[C@H]4O)c(O)ccc3c2=O)ccc1O [3'‐Methoxypuerarin], the “Percentage of motility inhibition 0 h” value was 11% and the “Percentage of motility inhibition 24 h” value was 51%.

With COc1ccc(-c2oc3c(OC)c(OC)c(OC)c(OC)c3c(=O)c2OC)cc1OC [3,5,6,7,8,3',4'‐Heptemthoxyflavone] the “Percentage of motility inhibition 0 h” value was 34% and the “Percentage of motility inhibition 24 h” value was 6%.

For COc1cc(OC)c2c(=O)c(OC)c(-c3ccc(OC)c(OC)c3)oc2c1 [3,5,7,3′,4′‐Pentamethoxyflavone], the “Percentage of motility inhibition 0 h” value was 2% and the “Percentage of motility inhibition 24 h” value was 24%.

In the case of O=c1c(O)c(-c2ccc(O)cc2)oc2cc(O)ccc12 [3,7,4'‐Trihydroxyflavone], the “Percentage of motility inhibition 0 h” value is reported as 0% and the “Percentage of motility inhibition 24 h” value is reported as 16%.

In the case of CC1(COC(=O)c2ccccc2)CCC2(C)CCC3(C)C4=CCC5C(C)(CCC(OC(=O)c6ccccc6)C5(C)C)C4=CCC3(C)C2C1 (centres unmarked) [3,29-O-Dibenzoyloxykarounidiol], the “Percentage of motility inhibition 0 h” value is reported as 15% and the “Percentage of motility inhibition 24 h” value is reported as 9%.

In the case of CC(=O)O[C@@H]1CC[C@@]2(C)[C@@H](CC[C@]3(C)[C@@H]2CC=C2[C@@H]4[C@@H](C)[C@H](C)CC[C@]4(C)CC[C@]23C)[C@@]1(C)C(=O)O [3-Acetyl-beta-boswellic acid], the “Percentage of motility inhibition 0 h” value is reported as 15% and the “Percentage of motility inhibition 24 h” value is reported as 21%.

In the case of CC(C)=CCCC(C(=O)O)C1CCC2(C)C3=C(CCC12C)C1(C)CCC(=O)C(C)(C)C1CC3 (centres unmarked) [3-Dehydrotrametenolic acid], the “Percentage of motility inhibition 0 h” value is reported as 17% and the “Percentage of motility inhibition 24 h” value is reported as 37%.

For CC1(C)CC[C@]2(C(=O)O)CC[C@]3(C)C(=CC[C@@H]4[C@@]5(C)CC[C@@H](O)C(C)(C)[C@@H]5CC[C@]43C)[C@@H]2C1 [3-Epioleanolic acid], the “Percentage of motility inhibition 0 h” value was 29% and the “Percentage of motility inhibition 24 h” value was 34%.

In the case of C[C@H]1[C@H](C)CC[C@]2(C(=O)O)CC[C@]3(C)C(=CC[C@@H]4[C@@]5(C)CC[C@H](O)C(C)(C)[C@@H]5CC[C@]43C)[C@H]12 [3-Epiursolic Acid], the “Percentage of motility inhibition 0 h” value is reported as 3% and the “Percentage of motility inhibition 24 h” value is reported as 18%.

CC(=O)O[C@H]1CC[C@]2(C)C3=C(CC[C@H]2C1(C)C)[C@]1(C)C[C@@H](O)[C@H]([C@@H](CCC=C(C)C)C(=O)O)[C@@]1(C)CC3 [3-O-Acetyl-16α-hydroxytrametenolic acid] was tested, and the “Percentage of motility inhibition 0 h” value was 7% and the “Percentage of motility inhibition 24 h” value was 10%.

CC(=O)OC1CCC2(C)C(CCC3(C)C2CC=C2C4CC(C)(C)CCC4(C)CCC23C)C1(C)C(=O)O (stereo not drawn) [3-O-Acetyl-α-boswellic acid] was tested, and the “Percentage of motility inhibition 0 h” value was 20% and the “Percentage of motility inhibition 24 h” value was 14%.

CC1(C)CC[C@]2(C(=O)O)[C@H](O)C[C@]3(C)C(=CC[C@@H]4[C@@]5(C)C[C@H](O)[C@H](O[C@@H]6O[C@H](CO)[C@@H](O)[C@H](O)[C@H]6O)C(CO)(CO)[C@@H]5CC[C@]43C)[C@@H]2C1 [3-O-Beta-D-Glucopyranosylplatycodigenin] was tested, and the “Percentage of motility inhibition 0 h” value was 0% and the “Percentage of motility inhibition 24 h” value was 0%.

For CSCCC(=O)O [3‐(Methylthio)propionic acid], the “Percentage of motility inhibition 0 h” value was 9% and the “Percentage of motility inhibition 24 h” value was 0%.

For CCN1C[C@]2(COC)CC[C@H](OC)C34C1C([C@H](OC)[C@@H]32)[C@]1(OC(C)=O)[C@@H]2[C@H]4C[C@@](O)([C@@H]2OC(=O)c2ccccc2)[C@@H](OC)[C@@H]1O [3‐Deoxyaconitine], the “Percentage of motility inhibition 0 h” value was 9% and the “Percentage of motility inhibition 24 h” value was 0%.

Oc1cccnc1 [3‐Hydroxypyr idine] was tested, and the “Percentage of motility inhibition 0 h” value was 18% and the “Percentage of motility inhibition 24 h” value was 19%.

In the case of Cc1ncccc1O [3‐Hydroxy‐2‐methylpyridine], the “Percentage of motility inhibition 0 h” value is reported as 15% and the “Percentage of motility inhibition 24 h” value is reported as 0%.

O=C(O)Cc1c[nH]c2ccccc12 [3‐Indoleacetic acid] was tested, and the “Percentage of motility inhibition 0 h” value was 4% and the “Percentage of motility inhibition 24 h” value was 11%.

In the case of Cl.Cl.Cn1cncc1CCN [3‐Methylhistamine (dihydrochloride)], the “Percentage of motility inhibition 0 h” value is reported as 4% and the “Percentage of motility inhibition 24 h” value is reported as 0%.

In the case of COc1c(-c2ccccc2)oc2cc(O)cc(O)c2c1=O [3‐O‐Methylgalangin], the “Percentage of motility inhibition 0 h” value is reported as 0% and the “Percentage of motility inhibition 24 h” value is reported as 4%.

O=c1cc(-c2ccc(O)cc2)oc2cccc(O)c12 [4',5‐Dihydroxyflavone] was tested, and the “Percentage of motility inhibition 0 h” value was 39% and the “Percentage of motility inhibition 24 h” value was 6%.

COc1ccc(-c2coc3cc(OC)ccc3c2=O)cc1 [4',7‐Dimetho xyisoflavone] was tested, and the “Percentage of motility inhibition 0 h” value was 21% and the “Percentage of motility inhibition 24 h” value was 27%.

In the case of COc1ccc(-c2coc3c([C@@H]4O[C@H](CO)[C@@H](O)[C@H](O)[C@H]4O)c(O)ccc3c2=O)cc1 [4'‐Methoxypuerarin], the “Percentage of motility inhibition 0 h” value is reported as 14% and the “Percentage of motility inhibition 24 h” value is reported as 3%.

In the case of COCc1c(CO)cnc(C)c1O [4'‐O‐Methylpyridoxine], the “Percentage of motility inhibition 0 h” value is reported as 26% and the “Percentage of motility inhibition 24 h” value is reported as 1%.

With COc1ccc(/C=C/C(=O)c2ccc(OC)cc2)cc1 [4,4'‐Dimetho xychalcone] the “Percentage of motility inhibition 0 h” value was 24% and the “Percentage of motility inhibition 24 h” value was 3%.

In the case of CC1=COC(=O)[C@H]2[C@@H]1CC[C@@H]2C [4aα,7α,7aα-Nepetalactone], the “Percentage of motility inhibition 0 h” value is reported as 17% and the “Percentage of motility inhibition 24 h” value is reported as 16%.

For CN1C[C@H](O)C[C@H]1C(=O)O [4‐Hydroxyhygric acid], the “Percentage of motility inhibition 0 h” value was 21% and the “Percentage of motility inhibition 24 h” value was 0%.

With CC1(C)C=Cc2c(ccc(C(=O)/C=C/c3ccc(O)cc3)c2O)O1 [4‐Hydroxylonchocarpin] the “Percentage of motility inhibition 0 h” value was 11% and the “Percentage of motility inhibition 24 h” value was 9%.

For O=Cc1c[nH]c2cccc(O)c12 [4‐Hydroxy‐1H‐indole‐3‐carbaldehyde], the “Percentage of motility inhibition 0 h” value was 23% and the “Percentage of motility inhibition 24 h” value was 5%.

O=c1cc(-c2ccc(O)cc2)oc2c(C3O[C@H](CO)[C@@H](O[C@@H]4O[C@H](CO)[C@@H](O)[C@H](O)[C@H]4O)[C@H](O)[C@H]3O)c(O)cc(O)c12 (some centres unmarked) [4”‐O‐Glucosylvitexin] was tested, and the “Percentage of motility inhibition 0 h” value was 0% and the “Percentage of motility inhibition 24 h” value was 0%.

In the case of COc1cc(OC)c2c(=O)cc(-c3ccc(OC)c(OC)c3)oc2c1 [5,7,3',4'‐Tetramethoxyflavone], the “Percentage of motility inhibition 0 h” value is reported as 0% and the “Percentage of motility inhibition 24 h” value is reported as 0%.

COc1ccc(-c2cc(=O)c3c(OC)cc(OC)cc3o2)cc1 [5,7,4'‐Trimethoxyflavone] was tested, and the “Percentage of motility inhibition 0 h” value was 0% and the “Percentage of motility inhibition 24 h” value was 1%.

With O=c1ccoc2cc(O)cc(O)c12 [5,7‐Dihydroxychromone] the “Percentage of motility inhibition 0 h” value was 0% and the “Percentage of motility inhibition 24 h” value was 0%.

With COc1cc(OC)c2c(=O)cc(-c3ccccc3)oc2c1 [5,7‐Dimethoxyflavone] the “Percentage of motility inhibition 0 h” value was 37% and the “Percentage of motility inhibition 24 h” value was 15%.

For COc1cc(OC)c2c(=O)cc(-c3ccc(O)c(O)c3)oc2c1 [5,7‐Dimethoxyluteolin], the “Percentage of motility inhibition 0 h” value was 24% and the “Percentage of motility inhibition 24 h” value was 13%.

For C=C1CCC2C(C=C(C)C(=O)C3(OC(C)=O)CC(C)C(OC(=O)c4ccccc4)C3C1OC(C)=O)C2(C)C (centres unmarked) [5,15-Diacetyl-3-benzoyllathyrol], the “Percentage of motility inhibition 0 h” value was 30% and the “Percentage of motility inhibition 24 h” value was 32%.

With CC(=O)[C@H]1CC[C@H]2[C@@H]3CC[C@H]4CC(=O)CC[C@]4(C)[C@H]3CC[C@]12C [5a‐Pregnane‐3,20‐dione] the “Percentage of motility inhibition 0 h” value was 2% and the “Percentage of motility inhibition 24 h” value was 17%.

C=C(C(=O)O)[C@@H]1CC[C@@]2(C)CCCC(=C)[C@]2(O)C1 [5α-Hydroxycostic acid] was tested, and the “Percentage of motility inhibition 0 h” value was 13% and the “Percentage of motility inhibition 24 h” value was 18%.

With COc1ccc(-c2cc(=O)c3c(O)c(OC)c(OC)cc3o2)cc1OC [5‐Desmethylsinensetin] the “Percentage of motility inhibition 0 h” value was 2% and the “Percentage of motility inhibition 24 h” value was 11%.

O=C1Cc2cc(O)ccc2N1 [5‐Hydroxyoxindole] was tested, and the “Percentage of motility inhibition 0 h” value was 15% and the “Percentage of motility inhibition 24 h” value was 10%.

For COc1ccc2[nH]cc(CCO)c2c1 [5‐Methoxytryptophol], the “Percentage of motility inhibition 0 h” value was 25% and the “Percentage of motility inhibition 24 h” value was 7%.

In the case of COc1cc(C)c2c(=O)c(-c3ccccc3)coc2c1 [5‐Methyl‐7‐methoxyisoflavone], the “Percentage of motility inhibition 0 h” value is reported as 16% and the “Percentage of motility inhibition 24 h” value is reported as 0%.

COc1ccc(-c2cc(=O)c3c(O)c(OC)c(OC)c(OC)c3o2)cc1OC [5‐O‐Demethylnobiletin] was tested, and the “Percentage of motility inhibition 0 h” value was 26% and the “Percentage of motility inhibition 24 h” value was 29%.

For O=C(O)c1cnc(O)cn1 [5‐hydroxypyr azine‐2‐carboxylic acid], the “Percentage of motility inhibition 0 h” value was 28% and the “Percentage of motility inhibition 24 h” value was 1%.

In the case of COc1cc2c(=O)c(-c3ccc(O)cc3)coc2cc1O[C@@H]1O[C@H](COC(C)=O)[C@@H](O)[C@H](O)[C@H]1O [6''‐O‐Acetylglycitin], the “Percentage of motility inhibition 0 h” value is reported as 4% and the “Percentage of motility inhibition 24 h” value is reported as 5%.

For C=C[C@@H]1C2=CCOC(=O)C2=CO[C@H]1O[C@@H]1O[C@H](CO[C@@H]2O[C@H](CO)[C@@H](O)[C@H](O)[C@H]2O)[C@@H](O)[C@H](O)[C@H]1O [6'-O-beta-D-Glucosylgentiopicroside], the “Percentage of motility inhibition 0 h” value was 34% and the “Percentage of motility inhibition 24 h” value was 15%.

With CCN1C[C@]2(C)CC[C@H](OC)C34C5C[C@@H]6CC[C@@](O)(C5C(=O)O6)C(C13)[C@@H](OC(=O)c1ccccc1)[C@@H]42 [6‐Benzoylheteratisine] the “Percentage of motility inhibition 0 h” value was 16% and the “Percentage of motility inhibition 24 h” value was 23%.

With COc1ccc(-c2cc(=O)c3c(OC)cc(OC)c(OC)c3o2)cc1 [6‐Demethoxytangeretin] the “Percentage of motility inhibition 0 h” value was 31% and the “Percentage of motility inhibition 24 h” value was 8%.

With O=c1cc(-c2ccc(O)c(O)c2)oc2cc(O[C@@H]3O[C@H](CO)[C@@H](O)[C@H](O)[C@H]3O)c(O)c(O)c12 [6‐Hydroxyluteolin 7‐glucoside] the “Percentage of motility inhibition 0 h” value was 0% and the “Percentage of motility inhibition 24 h” value was 10%.

In the case of Cc1ccc(C(N)=O)cn1 [6‐Methylni cotinamid e], the “Percentage of motility inhibition 0 h” value is reported as 0% and the “Percentage of motility inhibition 24 h” value is reported as 0%.
